Assay results published in patent US6083481A, “Thrombus imaging agents” (Diatide, Inc., priority 1998, dated 2000).

Test system: human platelets in platelet-rich plasma
Assay: Platelet aggregation inhibition assay (ADP-induced, platelet-rich plasma)
Assay type: cell-based
Conditions: fresh human platelet-rich plasma, aggregation induced by ADP 10 to 15 micromolar; read-out: IC50 (concentration of reagent that inhibits by 50% the aggregation of human platelets)
Method: Platelet aggregation studies were performed essentially as described by Zucker (1989, Methods in Enzymol. 169: 117-133). Briefly, platelet aggregation was assayed with or without putative platelet aggregation inhibitory compounds using fresh human platelet-rich plasma comprising 300,000 platelets per microlitre. Platelet aggregation was induced by the addition of a solution of adenosine diphosphate to a final concentration of 10 to 15 micromolar, and the extent of platelet aggregation monitored using a Bio/Data aggregometer (Bio/Data Corp., Horsham. Pa.). The concentrations of platelet aggregation inhibitory compounds used were varied from 0.1 to 500 μg/mL. The concentration of inhibitor that reduced the extent of platelet aggregation by 50% (defined as the IC50) was determined from plots of inhibitor concentration versus extent of platelet aggregation. An inhibition curve for peptide RGDS was determined for each batch of platelets tested as a positive control.
*concentration of reagent that inhibits by 50% the aggregation of human
platelets in plateletrich plasma induced to aggregate by the addition of
adenosine diphosphate (ADP).

GRDGVRGDFCAcm GCAcm amide [Peptide P98]
IC50: 15 µM
